Measured values: patent publication US9951065B2 (Gilead Sciences, Inc., priority 2015, dated 2018)

Biological target: T1, IDO1 (Homo sapiens, UniProt P14902)
T1 construct: HeLa cells were treated with a test compound in the presence of IFNγ, which induces IDO1 expression; host or cells: H1-HeLa cells, IDO1 induced with IFNγ
Assay: Cell-based (HeLa) assay for measurement of IDO1 inhibition (kynurenine levels in supernatant after IFNγ induction)
Settings: HeLa cells, IFNγ-induced IDO1, kynurenine in supernatant after 48 hour incubation; geometric mean of a minimum of four determinations
Protocol: Example 509. Cell-Based (HeLa) Assay for Measurement of IDOL Inhibition
To measure IDO1 inhibition in tissue culture, HeLa cells were treated with a test compound in the presence of IFNγ, which induces IDO1 expression. Following incubation, cell supernatants were assayed for kynurenine levels, an indicator of IDO1 activity.
H1-HeLa cells (ATCC #CRL-1958) were seeded in 384-well plates (Greiner #82051-282) at a volume of 50 μL/well in DMEM (Corning #15-018-CM) supplemented with 10% FBS (Corning #35-011-CV) and 1% P/S/G (Corning #30-009-CL) at a density of 1,250 cells/well and incubated overnight at 37° C., 5% CO2/100% humidity. The following day, the test compounds were added in DMSO (0.5% final) at various concentrations, and IDO1 was inducibly expressed by the addition of 50 uL/well of […] of INFγ (Peprotech #300-02) in cell plating media. As a […] control, 50 uL of the cell plating media without IFNγ was added to several wells. Following a 48 hour incubation, the plates were spun down at 1,200 RPM for 5 min at 10° C. 65 μL/well of the supernatant was then transferred to new 384-well plates (Thermo #262160) that contained 10 uL/well of 30% TCA (Sigma #TO699), and the plates were sealed and incubated at 60° C. for 30 min. The plates were then centrifuged for 15 min at 2,000 RPM at 10° C. 40 μL/well of the supernatant was transferred to new 384-well plates (Thermo #262160) and was reacted with 40 μL/well of 2% (w/v) p-dimethlyaminobenzaldehyde (Sigma #156417) in glacial acetic acid (Sigma #A6283). The reaction was incubated at room temperature for 10 min and absorbance at 480 nm was read using a PerkinElmer Envision plate reader.
Data in Table 1 were normalized based on positive (−IFNγ) and negative (+IFNγ) controls and EC50 values were calculated from the fit of the dose response curves to a four-parameter equation. All EC50 values represent geometric mean values of a minimum of four determinations. These assays generally produced results within 2-fold of the reported mean.

T1 sequence (P14902 whole entry): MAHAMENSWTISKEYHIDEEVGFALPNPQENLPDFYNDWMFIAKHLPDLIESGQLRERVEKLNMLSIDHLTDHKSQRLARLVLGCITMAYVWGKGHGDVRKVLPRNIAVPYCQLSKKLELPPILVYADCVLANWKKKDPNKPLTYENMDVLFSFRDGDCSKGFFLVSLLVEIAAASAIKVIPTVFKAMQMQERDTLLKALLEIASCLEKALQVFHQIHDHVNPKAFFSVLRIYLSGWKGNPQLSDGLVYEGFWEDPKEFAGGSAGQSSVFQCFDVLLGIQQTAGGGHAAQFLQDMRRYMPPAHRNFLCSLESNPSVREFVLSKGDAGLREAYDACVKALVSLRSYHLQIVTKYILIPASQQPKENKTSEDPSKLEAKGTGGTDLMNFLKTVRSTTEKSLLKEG

EC50 [nM] | Compound
3320 | CC(C)(O)CNc1nc2c(F)c(F)cc(/C(=N/O)Nc3ccc(F)c(Cl)c3)c2[nH]1 [Example 292, N-(3-chloro-4-fluorophenyl)-4,5-difluoro-N′-hydroxy-2-((2-hydroxy-2-methylpropyl)amino)-1H-benzo[d]imidazole-7-carboximidamide]
460 | COCCN(CCNc1nc2nccc(/C(=N/O)Nc3ccc(F)c(Cl)c3)c2[nH]1)C1CC1 [Example 232, N-(3-chloro-4-fluorophenyl)-2-((2-(cyclopropyl(2-methoxyethyl)amino)ethyl)amino)-N′-hydroxy-1H-imidazo[4,5-b]pyridine-7-carboximidamide]
1480 | CNCc1nc2nccc(/C(=N/O)Nc3ccc(F)c(Cl)c3)c2[nH]1 [Example 178, N-(3-Chloro-4-fluorophenyl)-N′-hydroxy-2-((methylamino)methyl)-1H-imidazo[4,5-b]pyridine-7-carboximidamide]
1090 | Nc1nc2c(F)c(F)cc(/C(=N/O)Nc3ccc(F)c(C(F)(F)F)c3)c2[nH]1 [Example 17, 2-Amino-4,5-difluoro-N-(4-fluoro-3-(trifluoromethyl)phenyl)-N′-hydroxy-1H-benzo[d]imidazole-7-carboximidamide]
845 | O/N=C(\Nc1ccc(F)c(OC(F)(F)F)c1)c1ccnc2nc[nH]c12 [Example 101, N-(4-Fluoro-3-(trifluoromethoxy)phenyl)-N′-hydroxy-1H-imidazo[4,5-b]pyridine-7-carboximidamide]
740 | CC(C)NCc1nc2nccc(/C(=N/O)Nc3ccc(F)c(Cl)c3)c2[nH]1 [Example 116, N-(3-Chloro-4-fluorophenyl)-N′-hydroxy-2-((isopropylamino)methyl)-1H-imidazo[4,5-b]pyridine-7-carboximidamide]
801 | CCNCc1nc2c(F)c(F)cc(/C(=N/O)Nc3cccc(Cl)c3)c2[nH]1 [Example 28, N-(3-Chlorophenyl)-2-((ethylamino)methyl)-4,5-difluoro-N′-hydroxy-1H-benzo[d]imidazole-7-carboximidamide]
1050 | N#Cc1cc(N/C(=N\O)c2ccnc3nc[nH]c23)ccc1F [Example 90, N-(3-Cyano-4-fluorophenyl)-N′-hydroxy-1H-imidazo[4,5-b]pyridine-7-carboximidamide]
1340 | O/N=C(\Nc1cccc2ccoc12)c1ccnc2nc[nH]c12 [Example 69, N-(Benzofuran-7-yl)-N′-hydroxy-1H-imidazo[4,5-b]pyridine-7-carboximidamide]
798 | O/N=C(\Nc1ccc(F)c(Cl)c1)c1ccnc2nc(NC3CCC3)[nH]c12 [Example 164, N-(3-Chloro-4-fluorophenyl)-2-(cyclobutylamino)-N′-hydroxy-1H-imidazo[4,5-b]pyridine-7-carboximidamide]
8240 | OCCCNCc1nc2nccc(/C(=N/O)Nc3ccc(F)c(Cl)c3)c2[nH]1 [Example 138, N-(3-Chloro-4-fluorophenyl)-N′-hydroxy-2-(((3-hydroxypropyl)amino)methyl)-1H-imidazo[4,5-b]pyridine-7-carboximidamide]
382 | Nc1nc2c(F)ccc(/C(=N/O)Nc3ccc(F)c(Cl)c3)c2[nH]1 [Example 22, 2-Amino-N-(3-chloro-4-fluorophenyl)-4-fluoro-N′-hydroxy-1H-benzo[d]imidazole-7-carboximidamide]
1060 | O/N=C(\Nc1ccc(F)c(Cl)c1)c1cc(F)c(F)c2[nH]c(CNCC3CC3)nc12 [Example 49, N-(3-Chloro-4-fluorophenyl)-2-(((cyclopropylmethyl)amino)methyl)-4,5-difluoro-N′-hydroxy-1H-benzo[d]imidazole-7-carboximidamide]
876 | COCCNc1nc2nccc(C(=NO)Nc3ccc(F)c(Cl)c3)c2[nH]1 [Example 212, N-(3-chloro-4-fluorophenyl)-N′-hydroxy-2-((2-methoxyethyl)amino)-1H-imidazo[4,5-b]pyridine-7-carboximidamide]
5110 | O/N=C(\Nc1ccc(F)c(Cl)c1)c1ccnc2nc(CNCC3CCOC3)[nH]c12 (stereo not drawn) [Example 135, N-(3-Chloro-4-fluorophenyl)-N′-hydroxy-2-((((tetrahydrofuran-3-yl)methyl)amino)methyl)-1H-imidazo[4,5-b]pyridine-7-carboximidamide]
1680 | CC(C)(C)CNCc1nc2nccc(/C(=N/O)Nc3ccc(F)c(Cl)c3)c2[nH]1 [Example 141, N-(3-Chloro-4-fluorophenyl)-N′-hydroxy-2-((neopentylamino)methyl)-1H-imidazo[4,5-b]pyridine-7-carboximidamide]
3260 | OCCNc1nc2c(F)c(F)cc(/C(=N/O)Nc3ccc(F)c(Cl)c3)c2[nH]1 [Example 295, N-(3-chloro-4-fluorophenyl)-4,5-difluoro-N′-hydroxy-2-((2-hydroxyethyl)amino)-1H-benzo[d]imidazole-7-carboximidamide]
9950 | NC(=O)CNc1nc2c(F)c(F)cc(/C(=N/O)Nc3ccc(F)c(Cl)c3)c2[nH]1 [Example 294, 2-((7-(N-(3-chloro-4-fluorophenyl)-N′-hydroxycarbamimidoyl)-4,5-difluoro-1H-benzo[d]imidazol-2-yl)amino)acetamide]

Same assay, conditions: HeLa cells, IFNγ-induced IDO1, kynurenine in supernatant, 48 hour incubation; geometric mean of a minimum of four determinations

EC50 [nM] | Compound
> 10000 | CC(C)(O)Cc1nc2c(F)c(F)cc(/C(=N/O)Nc3ccc(F)c(Cl)c3)c2[nH]1 [Example 302, N-(3-chloro-4-fluorophenyl)-4,5-difluoro-N′-hydroxy-2-(2-hydroxy-2-methylpropyl)-1H-benzo[d]imidazole-7-carboximidamide]
6660 | CN(C)[C@@H]1CCC[C@H](Nc2nc3c(F)c(F)cc(/C(=N/O)Nc4ccc(F)c(Cl)c4)c3[nH]2)C1 [Example 440, N-(3-chloro-4-fluorophenyl)-2-(((1S,3R)-3-(dimethylamino)cyclohexyl)amino)-4,5-difluoro-N′-hydroxy-1H-benzo[d]imidazole-7-carboximidamide]
3860 | O/N=C(\Nc1ccc(F)c(Cl)c1)c1cc(F)c(F)c2nc(NCc3cccnc3)[nH]c12 [Example 343, N-(3-chloro-4-fluorophenyl)-4,5-difluoro-N′-hydroxy-2-((pyridin-3-ylmethyl)amino)-1H-benzo[d]imidazole-7-carboximidamide]
337 | CN1CCC[C@H](Nc2nc3c(F)c(F)cc(/C(=N/O)Nc4cccc(Cl)c4)c3[nH]2)C1 [Example 459, (S)—N-(3-chlorophenyl)-4,5-difluoro-N′-hydroxy-2-((1-methylpiperidin-3-yl)amino)-1H-benzo[d]imidazole-7-carboximidamide]
4410 | COC(=O)NCCNc1nc2c(F)c(F)cc(/C(=N/O)Nc3ccc(F)c(Cl)c3)c2[nH]1 [Example 337, Methyl (2-((7-(N-(3-chloro-4-fluorophenyl)-N′-hydroxycarbamimidoyl)-4,5-difluoro-1H-benzo[d]imidazol-2-yl)amino)ethyl)carbamate]
1990 | CN1Cc2ccccc2C(Nc2nc3c(F)c(F)cc(/C(=N/O)Nc4ccc(F)c(Cl)c4)c3[nH]2)C1 (stereo not drawn) [Example 475, N-(3-chloro-4-fluorophenyl)-4,5-difluoro-N′-hydroxy-2-((2-methyl-1,2,3,4-tetrahydroisoquinolin-4-yl)amino)-1H-benzo[d]imidazole-7-carboximidamide]
